The target in assay [1] is T1, GTPase KRas (Homo sapiens, UniProt P01116, G12C). Nature of the assay: Inhibition of KRAS G12C mutant in human NCI-H358 cells assessed as increase in accumulation of GDP bound KRAS G12C mutant protein incubated for 6 hrs. The format is cell-based.
In assay [2] the target is T1, GTPase KRas. The assay can be described thus: Inhibition of KRAS G12C mutant in human MIAPaCa2 cells assessed as increase in accumulation of GDP bound KRAS G12C mutant protein incubated for 6 hrs. It is filed as cell-based.

Structures are written as SMILES.

For 2 compounds, IC50 results are on record in ChEMBL document CHEMBL4364352, “Inhibitors of KRAS May Potentially Provide Effective Cancer Treatment” (ACS Med Chem Lett, 2019).

T1 sequence (P01116 whole entry G12C): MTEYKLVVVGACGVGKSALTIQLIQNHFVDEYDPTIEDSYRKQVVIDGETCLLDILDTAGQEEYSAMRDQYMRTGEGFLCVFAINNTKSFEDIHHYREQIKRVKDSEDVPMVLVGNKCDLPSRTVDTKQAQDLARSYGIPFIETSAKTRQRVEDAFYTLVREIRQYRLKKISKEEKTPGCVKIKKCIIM

On to `C=CC(=O)N1CCN(c2nc(OC[C@H]3CCCN3C)nc3c2C[C@@H](C)[C@H](c2c(C)ccc4[nH]ncc24)C3)CC1`, for which the concentration for half-maximal inhibition (IC50) on GTPase KRas [1] stood at 129 nM; at GTPase KRas [2], 236 nM.

In the case of `C=CC(=O)N1CCN(c2ncnc3c2CCC(c2c(C)ccc4[nH]ncc24)C3)[C@@H](C)C1` (stereo partly drawn), at GTPase KRas [2], the IC50 worked out at 4860 nM.
